Our source for the IC50, permeability and residual activity values is ChEMBL document CHEMBL1157712, “Hit to lead account of the discovery of bisbenzamide and related ureidobenzamide inhibitors of Rho kinase” (J Med Chem, 2010).

The target in data set [1] is Serine/threonine-protein kinase PLK1 (Homo sapiens, UniProt P53350). Description: Inhibition of PLK.
Data set [2] addresses Serine/threonine-protein kinase pim-2 (Homo sapiens, UniProt Q9P1W9). Description: Inhibition of PIM2.
For data set [3], the target named is Tyrosine-protein kinase Lyn (Homo sapiens, UniProt P07948). Nature of the data set: Inhibition of LYN.
For data set [4], the system named is Caco-2. Description: Permeability from apical to basolateral side in human Caco-2 cells. The format is ADME, cell-based. The following applies: caco-2, BLD = below limit of detection. Background: Caco-2 monolayers are a common model of the intestinal barrier.
The target in data set [5] is T1, Cytochrome P450 1A2 (Homo sapiens, UniProt P05177).
T1 sequence (P05177 whole entry): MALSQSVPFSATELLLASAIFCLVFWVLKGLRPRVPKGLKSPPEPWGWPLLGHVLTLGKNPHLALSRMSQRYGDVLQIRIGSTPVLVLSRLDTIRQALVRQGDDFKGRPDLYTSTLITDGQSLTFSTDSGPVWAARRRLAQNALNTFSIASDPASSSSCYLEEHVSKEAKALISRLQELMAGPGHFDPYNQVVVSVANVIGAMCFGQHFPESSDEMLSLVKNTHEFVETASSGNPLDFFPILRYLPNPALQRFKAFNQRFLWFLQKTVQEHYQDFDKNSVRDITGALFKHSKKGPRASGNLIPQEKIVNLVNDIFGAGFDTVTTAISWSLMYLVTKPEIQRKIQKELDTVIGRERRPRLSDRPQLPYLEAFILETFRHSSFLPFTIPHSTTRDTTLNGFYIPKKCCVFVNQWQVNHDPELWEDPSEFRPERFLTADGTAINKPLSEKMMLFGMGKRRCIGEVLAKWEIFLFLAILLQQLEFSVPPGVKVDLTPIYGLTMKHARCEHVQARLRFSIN
Description: Inhibition of human CYP1A2 by fluorescence assay. The format is ADME.

The target in data set [6] is Cytochrome P450 2C19 (Homo sapiens, UniProt P33261). Nature of the data set: Inhibition of human CYP2C19 by fluorescence assay. The format is ADME.
The target in data set [7] is Cytochrome P450 2D6 (Homo sapiens, UniProt P10635). Description: Inhibition of human CYP2D6 by fluorescence assay. The format is ADME.
For data set [8], the target named is Cytochrome P450 3A4 (Homo sapiens, UniProt P08684). Nature of the data set: Inhibition of human CYP3A4 by LCMS/MS assay. The format is ADME.
For data set [9], the target named is MAP kinase-interacting serine/threonine-protein kinase 2 (Homo sapiens) (UniProt Q9HBH9). Conditions: 3 to 6 uM.
Description: Inhibition of MNK2 at 3 to 6 uM relative to control
The target in data set [10] is Ribosomal protein S6 kinase alpha-5 (Homo sapiens) (UniProt O75582). The following applies: 3 to 6 uM.
Description: Inhibition of MSK1 at 3 to 6 uM relative to control
The target in data set [11] is Serine/threonine-protein kinase 3 (Homo sapiens) (UniProt Q13188). The following applies: 3 to 6 uM.
Description: Inhibition of MST2 at 3 to 6 uM relative to control
For data set [12], the target named is Serine/threonine-protein kinase Nek2 (Homo sapiens) (UniProt P51955). Conditions: 3 to 6 uM.
Description: Inhibition of NEK2a at 3 to 6 uM relative to control
Data set [13] deals with Mitogen-activated protein kinase 14 (Homo sapiens) (UniProt Q16539). The following applies: 3 to 6 uM.
Description: Inhibition of p38a at 3 to 6 uM relative to control
The target in data set [14] is Serine/threonine-protein kinase D1 (Homo sapiens) (UniProt Q15139). The following applies: 3 to 6 uM.
Description: Inhibition of PKD1 at 3 to 6 uM relative to control
Data set [15] has as its target Ribosomal protein S6 kinase alpha-3 (Homo sapiens) (UniProt P51812). The following applies: 3 to 6 uM.
Description: Inhibition of RSK2 at 3 to 6 uM relative to control
Data set [16] addresses Calcium/calmodulin-dependent protein kinase type 1 (Homo sapiens) (UniProt Q14012). Conditions: 3 to 6 uM.
Description: Inhibition of CAMK1 at 3 to 6 uM relative to control
The target in data set [17] is Cyclin-dependent kinase 2 (Homo sapiens) (UniProt P24941). The following applies: 3 to 6 uM.
Description: Inhibition of CDK2 at 3 to 6 uM relative to control
The target in data set [18] is Serine/threonine-protein kinase Chk1 (Homo sapiens) (UniProt O14757). Conditions: 3 to 6 uM.
Description: Inhibition of CHK1 at 3 to 6 uM relative to control
For data set [19], the target named is Eukaryotic elongation factor 2 kinase (Homo sapiens) (UniProt O00418). The following applies: 3 to 6 uM.
Description: Inhibition of EF2K at 3 to 6 uM relative to control
The target in data set [20] is Serine/threonine-protein kinase haspin (Homo sapiens) (UniProt Q8TF76). Conditions: 3 to 6 uM.
Description: Inhibition of GSG2 at 3 to 6 uM relative to control
Data set [21] deals with Tyrosine-protein kinase JAK3 (Homo sapiens) (UniProt P52333). Conditions: 3 to 6 uM.
Description: Inhibition of JAK3 at 3 to 6 uM relative to control
Data set [22] deals with Mitogen-activated protein kinase 8 (Homo sapiens) (UniProt P45983). The following applies: 3 to 6 uM.
Description: Inhibition of JNK1a1 at 3 to 6 uM relative to control
Data set [23] can be described thus: Inhibition of CK2 at 3 uM relative to control; values are per cent of control.
The target in data set [24] is Tyrosine-protein kinase CSK (Homo sapiens) (UniProt P41240). Nature of the data set: Inhibition of CSK at 3 uM relative to control; values are per cent of control.
Data set [25] in a line: Inhibition of PKA at 3 uM relative to control; values are per cent of control.
The target in data set [26] is Serine/threonine-protein kinase Sgk1 (Homo sapiens) (UniProt O00141). Nature of the data set: Inhibition of SGK at 3 uM relative to control; values are per cent of control.
Data set [27] has as its target Proto-oncogene tyrosine-protein kinase Src (Homo sapiens) (UniProt P12931). Description: Inhibition of SRC at 3 uM relative to control; values are per cent of control.
Data set [28] concerns the target Mitogen-activated protein kinase 15 (Homo sapiens) (UniProt Q8TD08). Nature of the data set: Inhibition of ERK8 at 3 uM relative to control; values are per cent of control.
Data set [29] has as its target Dual specificity mitogen-activated protein kinase kinase 1 (Homo sapiens) (UniProt Q02750). Description: Inhibition of MKK1 at 3 uM relative to control; values are per cent of control.
In data set [30] the target is [Pyruvate dehydrogenase (acetyl-transferring)] kinase isozyme 1, mitochondrial (Homo sapiens) (UniProt Q15118). Nature of the data set: Inhibition of PDK1 at 3 uM relative to control; values are per cent of control.
Data set [31] addresses Serine/threonine-protein kinase D1 (Homo sapiens) (UniProt Q15139). Description: Inhibition of PKD1 at 3 uM relative to control; values are per cent of control.
In data set [32] the target is Mitogen-activated protein kinase 1 (Homo sapiens) (UniProt P28482). Description: Inhibition of MAPK2 at 3 uM relative to control; values are per cent of control.
Data set [33] concerns the target Myosin light chain kinase, smooth muscle (Homo sapiens) (UniProt Q15746). Description: Inhibition of SMMLCK at 3 uM relative to control; values are per cent of control.
For data set [34], the target named is MAP kinase-activated protein kinase 2 (Homo sapiens) (UniProt P49137). Description: Inhibition of MAPKAPK2 at 3 uM relative to control; values are per cent of control.
Sequence of MAP kinase-activated protein kinase 2 (Homo sapiens) (P49137 whole entry, looked up): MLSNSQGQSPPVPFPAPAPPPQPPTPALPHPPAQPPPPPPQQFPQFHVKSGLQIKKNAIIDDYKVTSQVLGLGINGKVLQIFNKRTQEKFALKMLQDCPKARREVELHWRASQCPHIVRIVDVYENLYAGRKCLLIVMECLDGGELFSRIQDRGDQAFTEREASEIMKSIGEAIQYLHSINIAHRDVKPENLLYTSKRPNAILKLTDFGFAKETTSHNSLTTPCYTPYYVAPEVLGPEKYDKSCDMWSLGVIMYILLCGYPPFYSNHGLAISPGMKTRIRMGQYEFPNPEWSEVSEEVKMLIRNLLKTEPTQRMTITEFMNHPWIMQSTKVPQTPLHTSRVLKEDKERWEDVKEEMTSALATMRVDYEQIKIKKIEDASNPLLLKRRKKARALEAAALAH

Sequence of Serine/threonine-protein kinase D1 (Homo sapiens) (Q15139 whole entry): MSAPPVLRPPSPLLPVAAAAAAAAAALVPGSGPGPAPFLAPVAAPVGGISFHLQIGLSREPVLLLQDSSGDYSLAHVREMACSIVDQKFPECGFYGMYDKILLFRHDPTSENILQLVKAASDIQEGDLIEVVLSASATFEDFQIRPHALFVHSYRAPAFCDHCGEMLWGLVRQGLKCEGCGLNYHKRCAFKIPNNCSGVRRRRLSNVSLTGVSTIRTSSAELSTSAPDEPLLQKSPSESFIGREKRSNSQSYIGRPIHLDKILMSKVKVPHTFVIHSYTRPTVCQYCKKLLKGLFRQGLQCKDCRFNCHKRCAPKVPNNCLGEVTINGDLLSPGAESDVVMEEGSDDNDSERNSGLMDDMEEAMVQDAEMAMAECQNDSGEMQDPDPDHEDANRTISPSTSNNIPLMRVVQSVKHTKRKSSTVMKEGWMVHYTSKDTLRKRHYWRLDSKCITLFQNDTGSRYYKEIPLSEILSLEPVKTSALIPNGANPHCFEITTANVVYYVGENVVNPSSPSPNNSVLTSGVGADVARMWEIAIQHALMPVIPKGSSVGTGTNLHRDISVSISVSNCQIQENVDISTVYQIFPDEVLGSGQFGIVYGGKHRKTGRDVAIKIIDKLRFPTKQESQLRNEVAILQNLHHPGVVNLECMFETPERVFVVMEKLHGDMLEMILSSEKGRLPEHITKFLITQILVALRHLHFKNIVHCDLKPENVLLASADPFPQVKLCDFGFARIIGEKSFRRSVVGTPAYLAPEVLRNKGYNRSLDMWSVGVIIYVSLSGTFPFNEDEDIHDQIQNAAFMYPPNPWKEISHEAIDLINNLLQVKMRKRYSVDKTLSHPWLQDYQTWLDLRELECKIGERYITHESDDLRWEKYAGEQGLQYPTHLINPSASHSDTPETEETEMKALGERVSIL
Sequence of Mitogen-activated protein kinase 8 (Homo sapiens) (P45983 whole entry): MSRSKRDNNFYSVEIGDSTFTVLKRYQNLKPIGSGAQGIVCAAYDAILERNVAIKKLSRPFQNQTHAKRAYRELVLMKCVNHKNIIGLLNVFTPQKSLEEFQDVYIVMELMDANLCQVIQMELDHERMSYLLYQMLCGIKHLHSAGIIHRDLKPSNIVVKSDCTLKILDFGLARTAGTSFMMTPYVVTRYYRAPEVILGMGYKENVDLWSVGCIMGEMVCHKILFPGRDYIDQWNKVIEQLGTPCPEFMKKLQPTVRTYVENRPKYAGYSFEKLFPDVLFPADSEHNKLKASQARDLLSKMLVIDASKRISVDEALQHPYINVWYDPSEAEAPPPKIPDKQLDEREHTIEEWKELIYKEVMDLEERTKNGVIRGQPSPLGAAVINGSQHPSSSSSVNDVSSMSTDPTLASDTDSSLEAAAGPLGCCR
Sequence of Serine/threonine-protein kinase PLK1 (P53350 whole entry): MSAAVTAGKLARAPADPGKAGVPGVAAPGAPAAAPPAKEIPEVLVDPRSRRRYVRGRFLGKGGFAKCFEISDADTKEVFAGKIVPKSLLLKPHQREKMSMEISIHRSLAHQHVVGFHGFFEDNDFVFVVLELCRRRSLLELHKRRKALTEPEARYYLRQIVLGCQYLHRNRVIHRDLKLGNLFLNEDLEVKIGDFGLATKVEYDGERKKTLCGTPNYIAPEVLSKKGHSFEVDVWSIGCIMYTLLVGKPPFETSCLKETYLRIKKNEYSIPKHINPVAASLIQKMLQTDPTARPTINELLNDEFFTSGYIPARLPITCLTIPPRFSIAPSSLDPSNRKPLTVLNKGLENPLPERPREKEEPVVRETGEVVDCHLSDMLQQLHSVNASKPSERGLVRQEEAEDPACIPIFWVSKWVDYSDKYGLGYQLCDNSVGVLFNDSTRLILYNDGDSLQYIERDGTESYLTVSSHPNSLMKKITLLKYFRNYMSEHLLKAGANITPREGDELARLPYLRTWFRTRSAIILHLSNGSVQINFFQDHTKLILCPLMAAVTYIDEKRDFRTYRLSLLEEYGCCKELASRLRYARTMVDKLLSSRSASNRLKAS
Sequence of Serine/threonine-protein kinase Nek2 (Homo sapiens) (P51955 whole entry): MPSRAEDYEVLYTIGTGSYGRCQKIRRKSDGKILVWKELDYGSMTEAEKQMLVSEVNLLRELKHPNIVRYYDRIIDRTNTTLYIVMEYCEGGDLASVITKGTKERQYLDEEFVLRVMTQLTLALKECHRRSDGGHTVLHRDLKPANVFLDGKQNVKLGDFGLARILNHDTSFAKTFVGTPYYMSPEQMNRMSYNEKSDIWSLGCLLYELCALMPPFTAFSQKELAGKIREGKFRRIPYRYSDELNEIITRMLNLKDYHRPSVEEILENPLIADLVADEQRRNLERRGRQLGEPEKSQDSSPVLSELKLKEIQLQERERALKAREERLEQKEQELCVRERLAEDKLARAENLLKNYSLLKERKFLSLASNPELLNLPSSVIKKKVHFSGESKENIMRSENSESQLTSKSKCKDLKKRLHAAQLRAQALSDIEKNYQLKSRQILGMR
Sequence of Serine/threonine-protein kinase Chk1 (Homo sapiens) (O14757 whole entry): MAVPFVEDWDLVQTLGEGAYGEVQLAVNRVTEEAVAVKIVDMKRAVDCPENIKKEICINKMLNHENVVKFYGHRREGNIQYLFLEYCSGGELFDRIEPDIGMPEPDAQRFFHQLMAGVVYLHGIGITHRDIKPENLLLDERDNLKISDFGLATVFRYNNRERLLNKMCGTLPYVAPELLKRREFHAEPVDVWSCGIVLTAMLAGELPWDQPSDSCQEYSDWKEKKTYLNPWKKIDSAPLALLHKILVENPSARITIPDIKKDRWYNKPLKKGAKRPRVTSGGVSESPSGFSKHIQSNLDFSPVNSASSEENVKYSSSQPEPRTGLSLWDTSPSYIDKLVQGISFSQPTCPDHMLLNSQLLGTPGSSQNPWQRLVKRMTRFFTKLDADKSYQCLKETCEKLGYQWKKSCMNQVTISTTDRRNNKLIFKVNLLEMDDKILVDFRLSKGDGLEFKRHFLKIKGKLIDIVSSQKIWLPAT
Sequence of Cytochrome P450 2D6 (P10635 whole entry): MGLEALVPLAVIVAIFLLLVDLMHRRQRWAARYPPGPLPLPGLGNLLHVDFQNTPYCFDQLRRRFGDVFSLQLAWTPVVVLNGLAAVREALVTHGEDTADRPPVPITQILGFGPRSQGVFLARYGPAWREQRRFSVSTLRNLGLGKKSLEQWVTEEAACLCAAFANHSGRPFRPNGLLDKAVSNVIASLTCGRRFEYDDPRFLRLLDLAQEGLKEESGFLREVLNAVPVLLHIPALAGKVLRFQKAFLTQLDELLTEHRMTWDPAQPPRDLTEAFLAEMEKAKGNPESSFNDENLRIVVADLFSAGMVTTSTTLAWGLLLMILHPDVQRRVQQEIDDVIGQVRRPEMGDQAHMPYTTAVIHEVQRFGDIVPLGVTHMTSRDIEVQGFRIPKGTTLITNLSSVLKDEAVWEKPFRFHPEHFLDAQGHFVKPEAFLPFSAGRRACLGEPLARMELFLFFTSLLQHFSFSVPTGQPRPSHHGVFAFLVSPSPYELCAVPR
Sequence of Dual specificity mitogen-activated protein kinase kinase 1 (Homo sapiens) (Q02750 whole entry): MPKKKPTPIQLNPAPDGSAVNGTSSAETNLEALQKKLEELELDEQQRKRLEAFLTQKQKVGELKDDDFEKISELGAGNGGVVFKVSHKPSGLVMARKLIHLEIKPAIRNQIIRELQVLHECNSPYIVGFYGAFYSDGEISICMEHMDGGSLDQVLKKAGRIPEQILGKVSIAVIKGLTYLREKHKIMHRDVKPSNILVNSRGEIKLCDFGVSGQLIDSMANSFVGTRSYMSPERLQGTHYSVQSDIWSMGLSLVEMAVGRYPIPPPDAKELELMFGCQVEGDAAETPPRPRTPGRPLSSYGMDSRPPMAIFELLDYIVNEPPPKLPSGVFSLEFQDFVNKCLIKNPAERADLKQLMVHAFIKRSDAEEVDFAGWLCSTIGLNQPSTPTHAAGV
Sequence of Mitogen-activated protein kinase 14 (Homo sapiens) (Q16539 whole entry): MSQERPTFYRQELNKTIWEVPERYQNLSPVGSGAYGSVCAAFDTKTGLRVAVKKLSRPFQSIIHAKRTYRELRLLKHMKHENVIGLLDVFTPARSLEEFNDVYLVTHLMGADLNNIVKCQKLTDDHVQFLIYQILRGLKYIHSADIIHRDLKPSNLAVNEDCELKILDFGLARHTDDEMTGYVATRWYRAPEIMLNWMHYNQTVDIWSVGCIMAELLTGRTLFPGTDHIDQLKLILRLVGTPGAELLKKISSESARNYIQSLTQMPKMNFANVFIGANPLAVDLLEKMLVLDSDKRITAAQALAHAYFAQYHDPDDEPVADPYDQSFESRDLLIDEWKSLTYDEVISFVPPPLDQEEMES
Sequence of Mitogen-activated protein kinase 1 (Homo sapiens) (P28482 whole entry): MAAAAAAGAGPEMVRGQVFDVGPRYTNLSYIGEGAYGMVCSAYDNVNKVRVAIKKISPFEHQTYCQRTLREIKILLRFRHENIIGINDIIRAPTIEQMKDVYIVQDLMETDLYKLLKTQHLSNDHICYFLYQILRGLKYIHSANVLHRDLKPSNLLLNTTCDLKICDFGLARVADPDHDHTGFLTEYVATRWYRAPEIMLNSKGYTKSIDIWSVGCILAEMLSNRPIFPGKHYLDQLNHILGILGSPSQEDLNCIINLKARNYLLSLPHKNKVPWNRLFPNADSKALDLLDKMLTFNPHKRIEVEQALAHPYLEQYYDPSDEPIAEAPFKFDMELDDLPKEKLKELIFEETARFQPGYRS

In general, IC50 refers to the concentration that inhibits the measured activity by half. Read a high IC50 as weaker potency in that assay. For the molecule `COc1ccc(C(=O)NCc2cccc(C(=O)Nc3ccc4c(c3)CNCC4)c2)cc1OC`, the IC50 is > 10 µM in [1]; > 10 µM in data set [2]; > 10 µM in data set [3]; > 30 µM in data set [5]; > 30 µM in data set [6]; > 30 µM in data set [7]. In addition, the IC50 in data set [8] is > 30 µM. In data set [4], the permeability entry was “BLD”. The residual activity in data set [9], in data set [10], in [11], in [12], in data set [13] and in data set [14] was > 50% each time. Moreover, the residual activity in [15], in data set [16], in data set [17], in [18], in data set [19] and in data set [20] was > 50% each time. Besides, the residual activity in [21] and in data set [22] was > 50% in each case.

`NC(=O)c1ccc(NC(=O)NCc2cccc(C(=O)Nc3ccc4c(c3)CNCC4)c2)cc1`: the residual activity in data set [23], in [24], in data set [25], in [26], in [27] and in data set [28] was > 50% in each case. Moreover, the residual activity in [29], in data set [30], in [31], in [32], in data set [33] and in data set [34] was > 50% in each case.
